Among the test systems are A549; CCRF-CEM; COLO 205; HCT-116; HL-60; HT-29; K562; LOX IMVI; MOLT-4; NCI-H460; OVCAR-5; OVCAR-8; SF-268; SF-295; SK-MEL-28; SK-MEL-2; SK-MEL-5; SN12C; SW-620; UO-31.
Holding throughout (experiment): DTP human tumour cell line panel, 48 h

Structures are written as SMILES.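 The compound was tested at five concentrations on cells cultured in 96-well plates, with a 48-hour exposure period. GI50 marks 50% less growth.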 Activity calls are given as the source filed them. Rule as the data show it: active = GI50 up to about 1.1 µM and inactive = higher.

Consider `O=C1Cc2c(-c3ccccc3)cc(-c3cccc(Cl)c3)nc2-c2ccccc2N1`, for which the GI50 (usually the concentration that inhibits growth by half) was 1.82 µM (inactive) in the test with A549; 12.1 µM (inactive) in the test with CCRF-CEM; 6.62 µM (inactive) in the test with COLO 205; 1.6 µM (inactive) in the test with HCT-116; 38.7 µM (inactive) in the test with HL-60; 1.73 µM (inactive) with HT-29. For the same molecule, the GI50 with K562 was 3.33 µM (inactive); with LOX IMVI, 2.04 µM (inactive); in the test on MOLT-4, 20.1 µM (inactive); with NCI-H460, 1.2 µM (inactive); in the test on OVCAR-5, 6.19 µM (inactive); with OVCAR-8, 1.61 µM (inactive). Also, the GI50 was 2.73 µM (inactive) in the test with SF-268; 3.56 µM (inactive) in the test with SF-295; 3.9 µM (inactive) in the test on SK-MEL-28; 8 µM (inactive) in the test on SK-MEL-2; 9.91 µM (inactive) in the test on SK-MEL-5; 1.26 µM (inactive) with SN12C. Further, the GI50 in the test with SW-620 was 3.91 µM (inactive); with UO-31 it was 3.14 µM (inactive).

With `COC(CN(C(C)=O)C1CCC2(SCCS2)c2[nH]c3ccccc3c21)OC` (stereo not given), the GI50 was > 100 µM (inactive) in the test with A549; > 100 µM (inactive) in the test on CCRF-CEM; > 100 µM (inactive) in the test with COLO 205; > 100 µM (inactive) in the test on HCT-116; 89.9 µM (inactive) in the test with HL-60; > 100 µM (inactive) in the test on HT-29. The GI50 was > 100 µM (inactive) in the test on K562; 0.0422 µM (active) in the test with LOX IMVI; 60.8 µM (inactive) in the test on MOLT-4; > 100 µM (inactive) with NCI-H460; > 100 µM (inactive) in the test with OVCAR-5; > 100 µM (inactive) in the test on OVCAR-8. The GI50 is > 100 µM (inactive) in the test with SF-268; 0.207 µM (active) in the test on SF-295; > 100 µM (inactive) in the test with SK-MEL-28; > 100 µM (inactive) with SK-MEL-2; > 100 µM (inactive) in the test on SK-MEL-5; > 100 µM (inactive) in the test on SN12C. For the same molecule, the GI50 in the test on SW-620 and in the test with UO-31 was > 100 µM (inactive) in each case.

For `Nc1nn(CC(O)CO)c(=O)s1` (stereo not given), the GI50 in the test with A549, in the test with CCRF-CEM, with COLO 205, in the test with HCT-116, with HL-60 and with HT-29 was > 100 µM (inactive) in each case. The GI50 in the test with K562, in the test on LOX IMVI, in the test on MOLT-4, in the test with NCI-H460, with OVCAR-5 and with OVCAR-8 was > 100 µM (inactive) each time. Besides, the GI50 in the test on SF-268 was > 100 µM (inactive); with SF-295, > 100 µM (inactive); in the test on SK-MEL-28, 7.69 µM (inactive); in the test with SK-MEL-2, > 100 µM (inactive); in the test with SK-MEL-5, > 100 µM (inactive); with SN12C, > 100 µM (inactive). Besides, the GI50 with SW-620 and in the test with UO-31 was > 100 µM (inactive) in each case.

With `CCOC(=O)C[C@@H]1C2(C=C[C@@]13CO3)OCC(C)(C)CO2`, the GI50 in the test with A549, in the test with CCRF-CEM, in the test on COLO 205, in the test with HCT-116, with HL-60 and with HT-29 was > 100 µM (inactive) throughout. In addition, the GI50 in the test with K562, in the test on LOX IMVI, in the test with MOLT-4, in the test with NCI-H460, in the test with OVCAR-5 and in the test on OVCAR-8 was > 100 µM (inactive) each time. Also, the GI50 in the test on SF-268, with SF-295, with SK-MEL-28, in the test on SK-MEL-2, with SK-MEL-5 and with SN12C was > 100 µM (inactive) each time. The GI50 in the test with SW-620 and in the test with UO-31 was > 100 µM (inactive) each time.

Turning to `Cc1c(N=NN(C)C)cc[n+]([O-])c1C`, the GI50 with A549, with CCRF-CEM, in the test on COLO 205, in the test with HCT-116, in the test with HL-60 and with HT-29 was > 100 µM (inactive) in each case. Also, the GI50 with K562, in the test on LOX IMVI, in the test on MOLT-4, in the test on NCI-H460, in the test with OVCAR-5 and with OVCAR-8 was > 100 µM (inactive) each time. Also, the GI50 in the test with SF-268, in the test on SF-295, in the test with SK-MEL-28, with SK-MEL-2, with SK-MEL-5 and with SN12C was > 100 µM (inactive) each time. For the same molecule, the GI50 with SW-620 and with UO-31 was > 100 µM (inactive) in each case.

Take `O=C(O)c1ccccc1C(=O)c1ccco1`: the GI50 in the test on A549, in the test with CCRF-CEM, in the test on COLO 205, in the test on HCT-116, in the test on HL-60 and with HT-29 was > 100 µM (inactive) in each case. For the same molecule, the GI50 in the test with K562, with LOX IMVI, with MOLT-4, in the test on NCI-H460, in the test with OVCAR-5 and in the test on OVCAR-8 was > 100 µM (inactive) in each case. Also, the GI50 in the test with SF-268, with SF-295, with SK-MEL-28, in the test with SK-MEL-2, with SK-MEL-5 and with SN12C was > 100 µM (inactive) each time. For the same molecule, the GI50 in the test on SW-620 and in the test with UO-31 was > 100 µM (inactive) throughout.

Regarding `COc1cc(C2c3cc4c(cc3[C@@H](Nc3cccc(C(C)=O)c3)C3COC(=O)[C@H]23)OCO4)cc(OC)c1O` (stereo not given in full), the GI50 with A549 was < 0.0184 µM (active); with CCRF-CEM it was 0.0349 µM (active); in the test with COLO 205, 1.86 µM (inactive); in the test on HCT-116, 0.664 µM (active); with HL-60, < 0.0327 µM (active); in the test with HT-29 it was 1.1 µM (active). In addition, the GI50 with K562 was 0.536 µM (active); in the test with LOX IMVI it was 0.39 µM (active); with MOLT-4 it was < 0.01 µM (active); in the test on NCI-H460, < 0.01 µM (active); in the test with OVCAR-5, 2.1 µM (inactive); in the test on OVCAR-8, 0.968 µM (active). Further, the GI50 in the test with SF-268 is 0.577 µM (active); in the test with SF-295 it was 0.126 µM (active); in the test with SK-MEL-28, 3.01 µM (inactive); with SK-MEL-2, 2.65 µM (inactive); in the test on SK-MEL-5, 0.411 µM (active); in the test on SN12C, 0.405 µM (active). Besides, the figures for the GI50 in the test on SW-620 and in the test on UO-31 were 0.2 µM (active) and 0.291 µM (active), respectively.

On to `COc1cc(/C=C/C2=C(C#N)C(=O)OC2(C)C)ccc1O`, for which the GI50 in the test on A549 is > 100 µM (inactive); in the test on CCRF-CEM it was 13.3 µM (inactive); in the test on COLO 205 it was 45.4 µM (inactive); in the test on HCT-116 it was 37.9 µM (inactive); with HL-60, 22.4 µM (inactive); in the test on HT-29 it was 48.2 µM (inactive). Besides, the GI50 with K562 was 29.1 µM (inactive); in the test on LOX IMVI, 20.7 µM (inactive); with MOLT-4, > 100 µM (inactive); in the test with NCI-H460 it was 38.9 µM (inactive); in the test on OVCAR-5 it was > 100 µM (inactive); in the test on OVCAR-8, 51.8 µM (inactive). Moreover, the GI50 in the test on SF-268 is 46.6 µM (inactive); in the test on SF-295, 46.1 µM (inactive); in the test on SK-MEL-28, > 100 µM (inactive); with SK-MEL-2, > 100 µM (inactive); in the test on SK-MEL-5, > 100 µM (inactive); with SN12C, 55 µM (inactive). Besides, the GI50 is 35.3 µM (inactive) in the test on SW-620 and 44.9 µM (inactive) with UO-31.

Consider `COc1ccc(Sc2ccccc2N)cc1`, for which the GI50 in the test on A549 was 55 µM (inactive); in the test on CCRF-CEM, 14.4 µM (inactive); in the test with COLO 205, 17 µM (inactive); in the test with HCT-116, 49 µM (inactive); with HL-60, 18.8 µM (inactive); in the test on HT-29 it was 23.3 µM (inactive). The GI50 in the test on K562 was 41.6 µM (inactive); in the test on LOX IMVI it was 64 µM (inactive); in the test with MOLT-4, 26.9 µM (inactive); in the test on NCI-H460 it was 52.5 µM (inactive); in the test with OVCAR-5 it was 46.5 µM (inactive); in the test on OVCAR-8, 60.5 µM (inactive). Besides, the GI50 with SF-268 is 43.1 µM (inactive); in the test with SF-295, 39.3 µM (inactive); in the test with SK-MEL-28, 43.4 µM (inactive); with SK-MEL-2, > 100 µM (inactive); with SK-MEL-5, 22.3 µM (inactive); with SN12C, 33.1 µM (inactive). The GI50 with SW-620 was 57.1 µM (inactive); in the test with UO-31, 21.8 µM (inactive).

For the molecule `COC(=O)c1ccc(NCC2=C(Br)C(=O)C=CC2=O)cc1Cl`, the GI50 in the test with A549 is > 100 µM (inactive); with CCRF-CEM, > 100 µM (inactive); with COLO 205, 17.8 µM (inactive); in the test on HCT-116, 18 µM (inactive); in the test on HL-60, 3.68 µM (inactive); in the test on HT-29 it was 17.7 µM (inactive). The GI50 in the test on K562 was 3.54 µM (inactive); in the test with LOX IMVI, 14.9 µM (inactive); with MOLT-4, 17.7 µM (inactive); in the test on NCI-H460, 17.2 µM (inactive); with OVCAR-5 it was 21.8 µM (inactive); with OVCAR-8 it was 19.3 µM (inactive). The GI50 in the test on SF-268 was 16.8 µM (inactive); in the test on SF-295 it was 40.1 µM (inactive); in the test with SK-MEL-28, 18.8 µM (inactive); with SK-MEL-2 it was 20.2 µM (inactive); in the test with SK-MEL-5, 20.1 µM (inactive); in the test on SN12C it was 16.5 µM (inactive). The GI50 is 16 µM (inactive) in the test on SW-620 and 16.4 µM (inactive) with UO-31.

The values above are taken from ChEMBL document CHEMBL1201862, “PubChem BioAssay data set” (2004).
